According to patent US20180228861A1, “COMPOSITION FOR TREATING DIABETES AND DYSLIPIDEMIA OBTAINED FROM THE EXTRACT OF COSTUS PICTUS D.DON PLANT AND A METHOD OF PREPARING THE SAME” (ARJUNA NATURAL EXTRACTS, LTD., priority 2012, published 2018):

How the values were obtained:
[1] = tested on: streptozotocin-induced Type 1 diabetic model in Wistar rats; test: Insulin and glycosylated Hb levels in streptozotocin-induced diabetic rats; format: in vivo; settings: extracts 40 mg/kg orally, glibenclamide 3 mg/kg orally
Description: (§1) The study was conducted in adult male Wistar rats weighing 200-250 gm for a period of 40 days (30 days of treatment and 10 days of induction). The animals were randomly divided into seven groups comprising six each. Diabetes was induced in all the groups except the normal control group by the intra peritoneal administration of streptozotocin at 50 mg/kg. […] The effect of the different fractions was assessed by measuring the fasting blood glucose level, post prandial blood glucose level, serum insulin levels and glycosylated Hb. The anti hyperlipidemic effect was assessed by the estimation of total cholesterol, triglyceride, LDL cholesterol, HDL cholesterol, VLDL, muscle glycogen and liver glycogen. The antioxidant effects of the different extracts were assessed by the measuring TBARS, superoxide dismutase (SOD), catalase, reduced glutathione (GSH) and glutathione peroxidase levels (GPx). TBARS was determined by TBA assay (Ohkawa et al., 1979), SOD was measured using the nitroblue tetrazolium reduction method (Kakkar et al., 1984), Catalase was assayed using the method described by Aebi (1974). GPx was measured as described by Flohe and Gunzler (1984), GSH was measured as per the method of Jollow et al., (1974). Histopathological examination of pancreas was conducted to assess the antidiabetic effect of the different fractions of Costus pictus D. Don.

isolated mouse islets = test: In vitro insulin secretogogue effect using isolated mouse islets; format: cell-based, mice (Swiss albino strain); settings: 10 nM
From the text: In vitro insulin secretogogue effect of the different fractions of Costus pictus D. Don using isolated mouse islets.
Four to six weeks old male mice (Swiss albino strain; weighing 25±2 g) used for the study were maintained in the optimum environmental conditions.
Pancreata isolated from animals which were euthanized with CO2 anesthesia according the method of Shewadae et al., (1999) was removed aspectically. Washed thrice with Hank's Balanced Salt Solution (HBSS) and were subjected to collagenase digestion at 37° C. The pancreata was incubated in the dissociation medium (Dulbecco's modified minimum essential medium (DMEM) supplemented with collagenase, Soybean Trypsin Inhibitor and Bovine Serum Albumin fraction V) for 10 minutes. The procedure was repeated thrice and the dissociation was stopped by addition of chilled DMEM with 10% fetal bovine serum to the pancreatic digest. The mixture was centrifuged at 200×g for 10 minutes and the supernatant was discarded. After two washings with DMEM, the pellet was seeded in culture flasks containing DMEM pH-7.2 supplemented with 10% fetal bovine serum. The flasks were incubated at 37° C. in a CO2 incubator.
The viability of the islets was checked by Trypan blue dye exclusion test (Warburton and James, 1995) and this estimate had shown >98% of the cells were viable. […]

[2] = tested on: streptozotocin-induced Type 1 diabetic model in Wistar rats; test: Antioxidant enzymes and TBARS in streptozotocin-induced diabetic rats; format: in vivo; settings: extracts 40 mg/kg orally, glibenclamide 3 mg/kg orally
Description: as §1

[3] = tested on: streptozotocin-induced Type 1 diabetic model in Wistar rats; test: Oral glucose tolerance test (post prandial glucose) in streptozotocin-induced diabetic rats; format: in vivo; settings: OGTT, glucose 2.5 g/kg oral gavage
Description: The study was conducted in adult male Wistar rats weighing 200-250 gm for a period of 40 days (30 days of treatment and 10 days of induction). The animals were randomly divided into seven groups comprising six each. Diabetes was induced in all the groups except the normal control group by the intra peritoneal administration of streptozotocin at 50 mg/kg. After the induction of diabetes, one group was kept as diabetic untreated control and a positive control was maintained in which the animals were treated with standard drug, glibenclamide at 3 mg/kg orally. All the other diabetic induced groups were treated with different extracts at 300 mg/kg orally. The effect of the different fractions was assessed by measuring the fasting blood glucose level, post prandial blood glucose level, serum insulin levels and glycosylated Hb. The anti hyperlipidemic effect was assessed by the estimation of total cholesterol, triglyceride, LDL cholesterol, HDL cholesterol, VLDL, muscle glycogen and liver glycogen. The antioxidant effects of the different extracts were assessed by the measuring TBARS, superoxide dismutase (SOD), catalase, reduced glutathione (GSH) and glutathione peroxidase levels (GPx). TBARS was determined by TBA assay (Ohkawa et al., 1979), SOD was measured using the nitroblue tetrazolium reduction method (Kakkar et al., 1984), Catalase was assayed using the method described by Aebi (1974). GPx was measured as described by Flohe and Gunzler (1984), GSH was measured as per the method of Jollow et al., (1974). Histopathological examination of pancreas was conducted to assess the antidiabetic effect of the different fractions of Costus pictus D. Don.
Oral glucose tolerance test (OGTT) was performed following a glucose challenge of 2.5 g/kg by oral gavage. Blood glucose was recorded at 30 min (PPG1), 60 min (PPG2), 120 min (PPG3) and 240 min (PPG4), after the glucose challenge on day 1, day 15 and day 30 of the study.

Structure (SMILES): COc1ccc(Cl)cc1C(=O)NCCc1ccc(S(=O)(=O)NC(=O)NC2CCCCC2)cc1 [glibenclamide]
- Glycosylated Hb [1]: 0.5 % total Hb
- Insulin level [1]: 13 μU/ml
- Thirty minutes Concentration of insulin (isolated mouse islets; thirty minutes): 3.77 ng/mL
- Zero minutes Concentration of insulin (isolated mouse islets; zero minutes): 0.97 ng/mL
- Catalase [2]: 59.36 nM H2O2 decomposed/s/g
- GPx [2]: 7.54 U/mg of protein
- GSH [2]: 38.12 mg/100 g
- SOD [2]: 2.96 U/mg protein
- TBARS [2]: 0.80 mM MDA/100 g
- PPG1. 1 ([3]; blood glucose at 30 min, day 1): 522.8
- PPG1. 15 ([3]; blood glucose at 30 min, day 15): 318.3
- PPG1. 30 ([3]; blood glucose at 30 min, day 30): 232.1
- PPG2. 1 ([3]; blood glucose at 60 min, day 1): 478.4
- PPG2. 15 ([3]; blood glucose at 60 min, day 15): 217.4
- PPG2. 30 ([3]; blood glucose at 60 min, day 30): 240.4
- PPG3. 1 ([3]; blood glucose at 120 min, day 1): 332.1
- PPG3. 15 ([3]; blood glucose at 120 min, day 15): 115.3
- PPG3. 30 ([3]; blood glucose at 120 min, day 30): 177.3
- PPG4. 1 ([3]; blood glucose at 240 min, day 1): 201.9
- PPG4. 15 ([3]; blood glucose at 240 min, day 15): 104.8
- PPG4. 30 ([3]; blood glucose at 240 min, day 30): 69.8
